Tests used:
LOX-IMVI xenograft = assay: LOX-IMVI subcutaneous melanoma xenograft model; type: in vivo, SCID mice
Description: For xenograft model studies human cancer cell lines were injected into SCID (severe combined immunodeficiency) mice. Cancer cell lines were propagated in culture in vitro. Tumor bearing animals were generated by injecting precisely determined numbers of cells into mice. Following inoculation of animals, the tumors were allowed to grow to a certain size prior to randomization. The mice bearing xenograft tumors ranging between pre-determined sizes were pooled together and randomized into various treatment groups. A typical efficacy study design involved administering one or more compounds at various dose levels to tumor-bearing mice. Additionally, reference chemotherapeutic agents (positive control) and negative controls were similarly administered and maintained. Tumor measurements and body weights were taken over the course of the study.
Mice were anesthetized with inhaled isoflurane and then inoculated with LOX-IMVI tumor cells subcutaneously above the right hind leg with 0.1 mL of a single cell suspension in PBS using a sterile 1 mL syringe fitted with a 26-gauge needle. Following inoculation of the animals, tumors were allowed to grow to approximately 75-125 mm^3 or in some cases 250-400 mm^3 prior to randomization of the mice. The tumor of each animal was measured and animals with tumors in the appropriate range were included in the study. Animals from the study pool were then distributed randomly into various cages and the cages were randomly assigned to vehicle, positive control, or test article groups. All of the mice were tagged with metal ear tags on the right ear. A typical group consisted of 8-10 animals. For a typical xenograft study, SCID mice bearing tumors were randomized and dosed with compounds ranging from, for example, 100 mg/kg to 0.1 mg/kg with different dose scheduling, including, but not limited to, qd, q2d, q3d, q5d, q7d and bid. The mice were dosed for 1-4 weeks. Tumors were measured twice a week using calipers and tumor volumes were calculated using the formula of W^2×L/2.
The purpose of this study was to confirm the efficacy of Compound 1 in the LOX-IMVI melanoma xenograft model.
In a separate experiment, Compound 1 was administered orally, QD for 8 days at 0.2, 1, 5, 10, and 15 mg/kg.

[1] = test system: DUSP4, DUSP6, SPRY2, c-Myc, cyclin D1, Axin2, CTGF, AREG mRNA in Colo 205 (BRAF V600E); assay: Quantitative PCR (Cell-To-CT kit) in Colo 205; type: cell-based
Description: (§1) The ability of Compound 1 to inhibit MAPK signaling was assessed by determining the DUSP4 and DUSP6 protein expression. Colon cancer cell line Colo 205 (BRAF V600E) cultures were treated with DMSO or increasing concentrations of Compound 1 for 2, 8 or 24 h. Proteins were extracted from treated cells and analyzed by Western blot using antibodies against DUSP4, DUSP6, cyclin D1, c-Myc, YAP or β-actin. RNAs were extracted using Cell-To-CT kit and quantitative PCR was performed with probes specific for DUSP4, DUSP6, SPRY2, c-Myc and cyclin D1. Specific probes for β-actin were used for normalization.
Cellular activity against beta-catenin and YAP target genes by Compound 1 was evaluated. Colon cancer cell line Colo 205 (BRAF V600E) cultures were treated with DMSO or increasing concentrations of Compound 1 for 2, 8 or 24 h. RNAs were extracted using Cell-To-CT kit and quantitative PCR was performed with probes specific for Axin2, CTGF, and AREG. Specific probes for β-actin were used for normalization.
Compound 1 modulation of MAPK, WNT/β-catenin, and Hippo/YAP pathway genes was evaluated by real-time (RT)-qPCR. […], SW48, and Colo-205 cells were plated in 96-well plates at a density of 20,000 cells per well and were allowed to attach overnight. Compound 1 was added to cells at half log concentrations from 1 nM to 10 μM for durations of 2, 8, and 24 hours. Cells were harvested using the TaqMan Gene Expression Cells-to-CT Kit according to the product manual. Next, RT-PCR was performed and the resulting cDNA was used in qPCR reactions on the ViiA7 Real-Time PCR System (Thermo Fisher Scientific). TaqMan probes were used to monitor changes in DUSP4, DUSP6, SPRY2, MYC, CCND1, AXIN2, CTGF, Cyr61, AREG, and ACTB genes. All genes were normalized to ACTB expression and reported as percentage of DMSO-only control.

[2] = test system: DUSP4, DUSP6, cyclin D1, c-Myc, YAP in Colo 205 (BRAF V600E); assay: Western blot of MAPK, Wnt and Hippo pathway markers in Colo 205; type: cell-based
Description: as §1
Compound 1 modulation of MAPK, WNT/β-catenin, and Hippo/YAP pathway markers was evaluated by standard Western blotting. LOX-IMVI, SW48, and Colo-205 cells were plated in 6-well plates at a density of 250,000 cells per well and were allowed to attach overnight. Compound 1 was added to cells at concentrations of 0.03, 0.1, 0.3, 1, and 3 μM for durations of 2, 8, and 24 hours. […] The cell lysates were heated in sodium dodecyl sulfate (SDS)-sample buffer and 40 μg of cell lysate per condition were loaded onto gels and separated using SDS polyacrylamide gel electrophoresis (PAGE). Protein was transferred to nitrocellulose membrane, and immunoblotted with anti DUSP4, DUSP6, cMyc, Cyclin D1, YAP, AXIN2, HDAC5 (phospho S498), and β-actin antibodies. Membranes were scanned on the Licor Odyssey system.

## C[C@]1(C(N)=O)CC[C@@H](n2c(Nc3c(Cl)cc(Cl)cc3Cl)nc3cnc(N[C@@H]4CCOC[C@H]4F)nc32)CC1 [Compound 1, cis-4-[2-{[(3S,4R)-3-fluorooxan-4-yl]amino}-8-(2,4,6-trichloroanilino)-9H-purin-9-yl]-1-methylcyclohexane-1-carboxamide]
LOX-IMVI xenograft; 10 and 15 mg/kg, orally, QD for 8 days
  tumor regression: Tumor regression was observed
LOX-IMVI xenograft; 15 and 30 mg/kg, both dose levels
  animals with tumor regression: 9 out of 9
LOX-IMVI xenograft; 15 and 30 mg/kg, each group
  animals tumor free at study end: 1 out of 9
LOX-IMVI xenograft; 15 and 30 mg/kg, p<0.001 for both dose levels
  tumor volume compared to the vehicle control: significant tumor volume reduction
LOX-IMVI xenograft; orally, QD for 8 days at 0.2, 1, 5, 10, and 15 mg/kg
  antitumor activity: Dose-dependent antitumor activity
[1]; Colo 205
  Axin2 RNA: increased Axin2 RNA
[1]; Colo 205, 2, 8 and 24 hr
  expression of Hippo/YAP target genes (CTGF, AREG): significantly reduced
[1]; Colo 205, 2, 8 or 24 h
  SPRY2 transcription: reduction of SPRY2 transcription in a concentration-dependent manner
[2]; Colo 205
  cyclin D1 and c-Myc RNA and protein levels: significantly decreased
[2]; Colo 205, 24 h
  YAP protein: decreased YAP protein
[2]; Colo 205, as early as 2 h, sustained through 24 h
  DUSP4 and DUSP6 protein: significantly reduced
